Laboratory results as given in patent US9085520B2, “Composition for treating diabetes and metabolic diseases and a preparation method thereof” (KAOHSIUNG MEDICAL UNIVERSITY, priority 2011, dated 2015).
“Also recorded” adds a separate entry of the source.

Columns and labels:
3T3-L1 adipocytes [1] = assay: glucose consumption (remaining glucose) in culture medium of 3T3-L1 adipocytes; assay type: cell-based; conditions: for remaining glucose concentration in culture medium after 24 hours: culture medium of 3T3-L1 adipocytes after 24 hours, means ± SD, N = 3; for glucose absorption activity of adipocytes 3T3-L1 (anti-hyperglycemic ability): FIG. 1, medium glucose 300 mg/dl, remaining glucose after 24 hours
Protocol: After precursor adipocytes 3T3-L1 were induced as the matured adipocytes, culture medium with glucose (concentration of 300 mg/dl) and drugs were added, and the concentration of the remaining glucose in the culture medium were measured after 24 hours.
Adipose tissues are major sites for postprandial glucose uptake. Therefore, in vitro anti-diabetic screening model based on measuring glucose consumption after 24 hours in culture medium of 3T3-L1 adipocytes was developed. […] Accordingly, 60 chalcone derivatives with and without substitutions on A-ring were examined in our developed model. […] Structure-activity relationship (SAR) analyses data are also determined.

3T3-L1 adipocytes [2] = assay: lipid droplet formation in 3T3-L1 adipocytes (Oil-Red O staining); assay type: cell-based; conditions: insulin 3.2×10^−7 M, RSZ, PIO, chalcone derivatives 30 μg/ml, DMEM 25 mM D-glucose, 4 days
Protocol: After two days of differentiation, 3T3-L1 cells were treated without (control) or with insulin (3.2×10^−7 M), RSZ (30 μg/ml), PIO (30 μg/ml), and chalcone derivatives (30 μg/ml) in DMEM containing 25 mM D-glucose. After 4 days, lipid droplets were observed by Oil-Red O staining (data not shown).

3T3-L1 adipocytes [3] = assay: adipocyte death / toxicity to adipocytes; conditions: 30 μg/ml, matured 3T3-L1 adipocytes, 24 hours

Row | Compound | remaining glucose concentration in culture medium after 24 hours (3T3-L1 adipocytes [1]; 30 μg/ml, control 310 ± 4.0) [mg/dL] | other results
1 | Insulin: insulin, positive control in the adipocyte tests | – | glucose consumption (3T3-L1 adipocytes [1]; Experiment 6, insulin 3.2×10^−7 M, RSZ, PIO 30 μg/ml, DMEM 25 mM D-glucose): promote glucose consumption; remaining glucose concentration in culture medium after 24 hours (3T3-L1 adipocytes [1]; insulin 3.2 × 10^−17M): 294 ± 6.3 mg/dL; formation of lipid droplets (3T3-L1 adipocytes [2]): increase the lipid droplets in adipocytes
2 | COc1cccc(/C=C/C(=O)c2ccc(O)cc2O)c1 [Compound 6, (E)-1-(2,4-dihydroxyphenyl)-3-(3-methoxyphenyl)-prop-2-en-1-one] | 274 ± 12.1 | glucose absorption activity of adipocytes 3T3-L1 (anti-hyperglycemic ability) (3T3-L1 adipocytes [1]; 30 μg/ml): not significantly better than that in compound 9; adipocyte death / toxicity to adipocytes (3T3-L1 adipocytes [3]): lead to adipocyte death; also recorded: toxic
3 | COc1ccc(/C=C/C(=O)c2ccccc2O)cc1 [Compound 1, (E)-1-(2-hydroxyphenyl)-3-(4-methoxyphenyl)prop-2-en-1-one] | 283 ± 21.4 | adipocyte death / toxicity to adipocytes (3T3-L1 adipocytes [3]): non-toxic
4 | O=C(/C=C/c1ccccc1)c1ccc(O)cc1O [Compound 2, (E)-1-(2,4-dihydroxyphenyl)-3-phenylprop-2-en-1-one] | 273 ± 2.9 | glucose absorption activity of adipocytes 3T3-L1 (anti-hyperglycemic ability) (3T3-L1 adipocytes [1]; 30 μg/ml): not significantly better than that in compound 9; adipocyte death / toxicity to adipocytes (3T3-L1 adipocytes [3]): lead to adipocyte death; also recorded: toxic
5 | COc1cccc(/C=C/C(=O)c2ccccc2O)c1 [Compound 4, (E)-1-(2-hydroxyphenyl)-3-(3-methoxyphenyl)prop-2-en-1-one] | 264 ± 7.8 | adipocyte death / toxicity to adipocytes (3T3-L1 adipocytes [3]): non-toxic
6 | COc1ccc(/C=C/C(=O)c2ccc(O)cc2O)cc1 [Compound 5, (E)-1-(2,4-dihydroxyphenyl)-3-(4-methoxyphenyl)-prop-2-en-1-one] | 248 ± 0.4 | glucose absorption activity of adipocytes 3T3-L1 (anti-hyperglycemic ability) (3T3-L1 adipocytes [1]; 30 μg/ml): not significantly better than that in compound 9; adipocyte death / toxicity to adipocytes (3T3-L1 adipocytes [3]): lead to adipocyte death; also recorded: toxic
7 | COc1cccc(/C=C/C(=O)c2ccc(I)cc2)c1 [Compound 60, (E)-1-(4-iodophenyl)-3-(3-methoxyphenyl)prop-2-en-1-one] | 274 ± 22.5 | –
8 | O=C(/C=C/c1ccccc1)c1ccc(I)cc1 [Compound 58, (E)-1-(4-iodophenyl)-3-phenylprop-2-en-1-one] | 292 ± 5.3 | –
9 | O=C(/C=C/c1ccccc1)c1cccc(Cl)c1 [Compound 43, (E)-1-(3-chlorophenyl)-3-phenylprop-2-en-1-one] | 291 ± 9.2 | –
10 | O=C(/C=C/c1ccccc1)c1ccccc1Br [Compound 48, (E)-1-(2-bromophenyl)-3-phenylprop-2-en-1-one] | 249 ± 20.8 | –
11 | COc1cccc(/C=C/C(=O)c2ccc(Cl)cc2)c1 [Compound 15, (E)-1-(4-chlorophenyl)-3-(3-methoxyphenyl)prop-2-en-1-one] | 272 ± 22.4 | glucose absorption activity of adipocytes 3T3-L1 (anti-hyperglycemic ability) (3T3-L1 adipocytes [1]; 30 μg/ml): not significantly different
12 | CCc1ccc(CCOc2ccc(CC3SC(=O)NC3=O)cc2)nc1 (stereo not shown) [Pioglitazone, pioglitazone, reference compound] | 230 ± 13.5 | remaining glucose concentration in culture medium after 24 hours (3T3-L1 adipocytes [1]; 30 μg/ml, control 310 ± 4.0, listed as pioglitazone): 230 mg/dL
13 | O=C(/C=C/c1ccc(OCc2ccccc2)cc1)c1ccccc1I [Compound 53, (E)-3-(4-(benzyloxy)phenyl)-1-(2-iodophenyl)prop-2-en-1-one] | 249 ± 3.6 | –
14 | O=C(/C=C/c1ccccc1)c1ccc(Cl)cc1 [Compound 46, (E)-1-(4-chlorophenyl)-3-phenylprop-2-en-1-one] | 295 ± 8.8 | –
15 | COc1cccc(/C=C/C(=O)c2cccc(Cl)c2)c1 [Compound 44, (E)-1-(3-chlorophenyl)-3-(3-methoxyphenyl)prop-2-en-1-one] | 287 ± 13.4 | –
16 | O=C(/C=C/c1ccccc1)c1cccc(Br)c1 [Compound 49, (E)-1-(3-bromophenyl)-3-phenylprop-2-en-1-one] | 299 ± 7.3 | –
17 | O=C(/C=C/c1ccccc1)c1ccccc1 [Compound 9, (E)-chalcone] | 253 ± 9.9 | glucose absorption activity of adipocytes 3T3-L1 (anti-hyperglycemic ability) (3T3-L1 adipocytes [1]; 30 μg/ml): relatively similar; adipocyte death / toxicity to adipocytes (3T3-L1 adipocytes [3]): non-toxic
18 | COc1cccc(/C=C/C(=O)c2ccc(F)cc2)c1 [Compound 42, (E)-1-(4-fluorophenyl)-3-(3-methoxyphenyl)prop-2-en-1-one] | 285 ± 1.6 | –
19 | O=C(/C=C/c1ccc(OCc2ccccc2)cc1)c1ccc(O)cc1O [Compound 3, (E)-3-(4-(benzyloxy)phenyl)-1-(2,4-dihydroxyphenyl)prop-2-en-1-one] | 249 ± 12.2 | glucose absorption activity of adipocytes 3T3-L1 (anti-hyperglycemic ability) (3T3-L1 adipocytes [1]; 30 μg/ml): not significantly better than that in compound 9; adipocyte death / toxicity to adipocytes (3T3-L1 adipocytes [3]): lead to adipocyte death; also recorded: toxic
20 | O=C(/C=C/c1ccccc1)c1cc(Br)ccc1O [Compound 19, (E)-1-(5-bromo-2-hydroxyphenyl)-3-phenylprop-2-en-1-one] | 253 ± 7.8 | –
21 | COc1ccc(/C=C/C(=O)c2cc(Cl)ccc2O)cc1 [Compound 37, (E)-1-(5-chloro-2-hydroxyphenyl)-3-(4-methoxyphenyl)prop-2-en-1-one] | 282 ± 16.4 | –
22 | O=C(/C=C/c1ccc(OCc2ccccc2)cc1)c1ccccc1 [Compound 31, (E)-3-(4-(benzyloxy)phenyl)-1-phenylprop-2-en-1-one] | 274 ± 13.0 | –
23 | COc1cccc(/C=C/C(=O)c2cccc(I)c2)c1 [Compound 57, (E)-1-(3-iodophenyl)-3-(3-methoxyphenyl)prop-2-en-1-one] | 246 ± 11.3 | –
24 | O=C(/C=C/c1cccc(OCc2ccccc2)c1)c1ccccc1 [Compound 30, (E)-3-(3-(benzyloxy)phenyl)-1-phenylprop-2-en-1-one] | 285 ± 8.2 | –
